Converted amounts (≈) assume the structure as drawn.
What was measured:
Experiment in all cases: ≥ marks a high value that may be exact or a test limit, other limits are often not marked, values filed in µg/mL are converted to µM
[1] = test system: Lacticaseibacillus rhamnosus 1.0925
[2] = test system: Pseudomonas aeruginosa ATCC 27853
[3] = test system: Staphylococcus aureus ATCC 43300
[4] = test system: Lacticaseibacillus rhamnosus 1.0911
Escherichia coli UB1005 = test system: Escherichia coli UB1005
[5] = test system: Lacticaseibacillus rhamnosus 1.0385
[6] = test system: Lactiplantibacillus plantarum 8014
[7] = test system: Staphylococcus epidermidis ATCC 12228
[8] = test system: Staphylococcus aureus ATCC 29213
[9] = test system: Lacticaseibacillus rhamnosus 1.0386
[10] = test system: Lacticaseibacillus rhamnosus 7469
[11] = test system: Escherichia coli ATCC 25922
[12] = test system: Streptococcus mutans ATCC 25175
[13] = test system: Staphylococcus aureus ATCC 12600
Escherichia coli ML-35p = test system: Escherichia coli ML-35p
[14] = test system: Enterococcus faecalis ATCC 29212
[15] = test system: Staphylococcus aureus ATCC BAA-44
[16] = test system: Acinetobacter baumannii ATCC 19606
[17] = test system: Staphylococcus aureus ST1065
[18] = test system: Klebsiella pneumoniae ATCC 13883
[19] = test system: Candida parapsilosis ATCC 22019
Saccharomyces cerevisiae = test system: Saccharomyces cerevisiae
[20] = test system: Staphylococcus aureus ATCC 25923
[21] = test system: Escherichia coli ATCC 35218
[22] = test system: Candida albicans ATCC 90028
[23] = test system: Salmonella enterica subsp. enterica serovar Enteritidis
Bacillus megaterium = test system: Bacillus megaterium
Listeria ivanovii = test system: Listeria ivanovii
[24] = test system: Micrococcus luteus ATCC 49732
[25] = test system: Aeromonas hydrophila ATCC 35654
[26] = test system: Bacillus subtilis CMCC 63501
[27] = test system: Salmonella enterica subsp. enterica serovar Typhimurium ATCC 14028
[28] = test system: Salmonella typhimurium ATCC 7731
[29] = test system: Pseudomonas aeruginosa ATCC 9027
[30] = test system: Staphylococcus aureus ATCC 6538
[31] = test system: Escherichia coli ATCC 2592
[32] = test system: Staphylococcus aureus 1550
[33] = test system: Micrococcus luteus ATCC 9341
[34] = test system: Escherichia coli NBRC 3972
[35] = test system: Aspergillus oryzae NBRC 100959
[36] = test system: Staphylococcus epidermidis NBRC 12993
[37] = test system: Micrococcus luteus NBRC 3333
[38] = test system: Candida viswanathii NBRC 10321
[39] = test system: Pseudomonas putida NBRC 100650

NC(=O)[C@H](CCCN=C(N)N)NC(=O)[C@H](CCCN=C(N)N)NC(=O)[C@H](Cc1c[nH]c2ccccc12)NC(=O)[C@H](Cc1ccc(O)cc1)NC(=O)[C@H](Cc1c[nH]c2ccccc12)NC(=O)[C@H](Cc1c[nH]c2ccccc12)NC(=O)[C@H](Cc1c[nH]c2ccccc12)NC(=O)[C@H](Cc1ccc(O)cc1)NC(=O)[C@H](Cc1c[nH]c2ccccc12)NC(=O)[C@H](CCCN=C(N)N)NC(=O)[C@@H](N)CCCN=C(N)N [RRWYWWWYWRR]
MIC [1]: ≥ 64 µM | MIC [2]: 8 µM (≈ 15.2 µg/mL) | MIC [3]: 8 µM (≈ 15.2 µg/mL) | MIC [4]: ≥ 64 µM | MIC (Escherichia coli UB1005): ≥ 32 µM | MIC [5]: 16 µM (≈ 30.4 µg/mL) | MIC [6]: 4 µM (≈ 7.6 µg/mL) | MIC [7]: 8 µM (≈ 15.2 µg/mL) | MIC [8]: 8 µM (≈ 15.2 µg/mL) | MIC [9]: 16 µM (≈ 30.4 µg/mL) | MIC [10]: ≥ 64 µM | MIC [11]: 32 µM (≈ 60.8 µg/mL)

CC[C@H](C)[C@H](NC(=O)[C@H](C)NC(=O)CNC(=O)[C@H](Cc1ccccc1)NC(=O)[C@H](CC(C)C)NC(=O)CN)C(=O)N[C@@H](C)C(=O)NCC(=O)N[C@@H](Cc1ccccc1)C(=O)N[C@H](C(=O)N[C@@H](CCCCN)C(=O)N[C@@H](CCCCN)C(=O)NCC(=O)N[C@@H](Cc1c[nH]c2ccccc12)C(=O)N1CCC[C@H]1C(=O)NCC(=O)N[C@@H](CC(C)C)C(=O)N[C@H](C(=O)N[C@@H](CCCCN)C(=O)NCC(N)=O)C(C)C)[C@@H](C)CC [GLFGAIAGFIKKGWPGLVKG]
MIC [2]: 15.5 µM (≈ 31.2 µg/mL) | MIC [12]: 1.9 µM (≈ 3.83 µg/mL) | MIC [13]: 3.9 µM (≈ 7.86 µg/mL) | MIC [11]: 7.8 µM (≈ 15.7 µg/mL)

CC[C@H](C)[C@H](NC(=O)CNC(=O)[C@H](C)NC(=O)[C@H](CC(C)C)NC(=O)[C@H](C)NC(=O)[C@@H]1CCCN1C(=O)[C@H](CC(C)C)NC(=O)[C@@H](N)Cc1ccccc1)C(=O)N[C@@H](C)C(=O)NCC(=O)N[C@@H](CC(C)C)C(=O)N[C@@H](CC(C)C)C(=O)NCC(=O)N[C@@H](CCCCN)C(=O)N[C@H](C(=O)N[C@@H](Cc1ccccc1)C(N)=O)[C@@H](C)CC [FLPALAGIAGLLGKIF]
MIC (Escherichia coli ML-35p): ≥ 50 µM | MIC [14]: 12.5 µM (≈ 20 µg/mL) | MIC [15]: 3.12 µM (≈ 4.99 µg/mL) | MIC [16]: 25 µM (≈ 40 µg/mL) | MIC [17]: 3.12 µM (≈ 4.99 µg/mL) | MIC [18]: ≥ 100 µM | MIC [19]: ≥ 50 µM | MIC [2]: 60 µM (≈ 96 µg/mL) | MIC (Saccharomyces cerevisiae): 12.5 µM (≈ 20 µg/mL) | MIC [20]: 3.12 µM (≈ 4.99 µg/mL) | MIC [21]: ≥ 50 µM | MIC [3]: 3.1 µM (≈ 4.96 µg/mL) | MIC [22]: ≥ 100 µM | MIC [23]: ≥ 100 µM | MIC (Bacillus megaterium): 1.56 µM (≈ 2.5 µg/mL) | MIC [11]: 25 µM (≈ 40 µg/mL) | MIC (Listeria ivanovii): 5 µM (≈ 8 µg/mL)

CC(C)C[C@H](NC(=O)[C@H](Cc1cnc[nH]1)NC(=O)[C@H](C)NC(=O)[C@H](CCCCN)NC(=O)[C@H](CCCCN)NC(=O)[C@H](Cc1ccccc1)NC(=O)[C@H](CO)NC(=O)[C@H](CCCCN)NC(=O)[C@H](CC(=O)O)NC(=O)[C@H](Cc1cnc[nH]1)NC(=O)[C@H](Cc1c[nH]c2ccccc12)NC(=O)[C@H](CCCN=C(N)N)NC(=O)[C@H](CCC(N)=O)NC(=O)[C@H](CCC(N)=O)NC(=O)[C@H](CCCN=C(N)N)NC(=O)[C@@H](N)CCCN=C(N)N)C(=O)NCC(=O)N[C@H](C(=O)N[C@@H](C)C(=O)N[C@H](C(=O)N[C@@H](CCCCN)C(=O)N[C@@H](C)C(N)=O)C(C)C)[C@@H](C)O [RRQQRWHDKSFKKAHLGTAVKA]
MIC [20]: > 20 µM | MIC [24]: 20 µM (≈ 53 µg/mL) | MIC [25]: 20 µM (≈ 53 µg/mL) | MIC [11]: > 20 µM

CC[C@H](C)[C@H](NC(=O)[C@H](C)NC(=O)[C@H](CCCCN)NC(=O)[C@H](Cc1ccc(O)cc1)NC(=O)[C@@H](N)CC(C)C)C(=O)N[C@@H](CCCN=C(N)N)C(=O)N[C@@H](CCCN=C(N)N)C(=O)N[C@@H](CCCCN)C(N)=O [LYKAIRRK]
MIC [26]: ≥ 128 µM | MIC [2]: > 128 µM | MIC [27]: > 128 µM | MIC (Escherichia coli UB1005): ≥ 128 µM | MIC [28]: ≥ 128 µM | MIC [7]: > 128 µM | MIC [8]: > 128 µM | MIC [11]: > 128 µM

CC(C)[C@H](NC(=O)[C@H](CCCCN)NC(=O)[C@H](Cc1ccccc1)NC(=O)[C@@H](NC(=O)[C@@H](NC(=O)[C@H](CCCCN)NC(=O)[C@@H](N)CCCCN)C(C)C)C(C)C)C(=O)N[C@@H](CCCCN)C(=O)N[C@@H](Cc1ccccc1)C(=O)N[C@@H](CCCCN)C(=O)O [KKVVFKVKFK]
MIC [29]: 4 µM (≈ 5 µg/mL) | MIC [30]: 2.49 µM (≈ 3.12 µg/mL) | MIC [31]: 8 µM (≈ 10 µg/mL) | MIC [32]: 17.6 µM (≈ 22 µg/mL) | MIC [33]: 3.2 µM (≈ 4 µg/mL)

CC[C@H](C)[C@H](NC(=O)[C@H](CCSC)NC(=O)[C@H](CCCN=C(N)N)NC(=O)[C@H](CCCN=C(N)N)NC(=O)[C@H](CC(C)C)NC(=O)[C@H](Cc1ccc(O)cc1)NC(=O)[C@H](CCCN=C(N)N)NC(=O)[C@H](CCCCN)NC(=O)[C@@H](NC(=O)[C@H](CCCCN)NC(=O)[C@@H](N)CCCN=C(N)N)[C@@H](C)CC)C(=O)O [RKIKRYLRRMI]
MIC [34]: 4.08 µM (≈ 6.25 µg/mL) | MIC [35]: 16.3 µM (≈ 25 µg/mL) | MIC [36]: 4.08 µM (≈ 6.25 µg/mL) | MIC [37]: 2.04 µM (≈ 3.13 µg/mL) | MIC [38]: 8.15 µM (≈ 12.5 µg/mL) | MIC [39]: 8.15 µM (≈ 12.5 µg/mL)
